# Assay results from paper PMC7224190, “Pharmacological inhibition of PRMT7 links arginine monomethylation to the cellular stress response” (Nature Communications, 2020).
# Legend:
# PRMT1 = PRMT1 (Homo sapiens, UniProt Q99873); test: biochemical; design: radiometric methyltransferase assay with tritiated SAM, IC50
# Procedure: (§1) The methyltransferase selectivity was assessed at two compound concentrations of 1 and 10 μM by radiometric assays using tritiated-SAM. For methyltransferases: MLL1, MLL3, EZH1 (PRC2), and EZH2 (PRC2), G9a, GLP, SUV39H1, SUV39H2, SUV420H1, SUV420H2, SETD2, SETD8, SETDB1, SETD7, PRMT1, PRMT3, PRMT4, PRMT5/ MEP50 complex, PRMT6, PRMT7, PRMT8, PRMT9, PRDM9, SMYD2, SMYD3, DNMT1, and BCDIN3D the incorporation of a tritium-labeled methyl group into biotinylated substrate was monitored using scintillation proximity assay (SPA). Briefly, a 10 μL reaction containing ^3H-SAM and substrate at concentrations close to the apparent Km values for each enzyme (balanced conditions) was prepared. The reactions were quenched with 10 μL of 7.5 M guanidine hydrochloride; 180 μL of 20 mM Tris buffer (pH 8.0) were added, and the mixture was transferred to a 96-well FlashPlate and incubated for 1 h. The counts per minute (CPM) was measured on a TopCount plate reader. The CPM in the absence of compound or enzyme was defined as 100% activity and background (0%), respectively, for each dataset[74]–[76]. Selectivity of SGC8158 against 342 kinases was evaluated in a kinase panel TR-FRET assay at 1 and 0.1 μM compound in duplicates as described before. Briefly, tagged kinases were incubated with compound and staurosporine-based fluorescent probe where the binding was detected using Tb conjugated anti-tag antibody energy transfer to the probe. Excitation wavelength was 337 nm and fluorescent emission signal was measured for Tb (486 nm) and fluorescent probe (BODIPY, 515 nm). Specific and non-specific binding was determined in the absence and presence of unlabeled staurosporine. Assays using biotinylated H2B (23–37) as a substrate were performed in buffer (20 mM Tris–HCl, pH 8.5, 0.01% Tween-20, and 5 mM DTT) containing 5 nM PRMT7, 1.1 µM ^3H-SAM (Cat.# NET155V250UC; Perkin Elmer; www.perkinelmer.com) and 0.3 µM H2B (23–37). The reaction mixtures were incubated for 60 min at 23 °C. To stop the enzymatic reactions, 10 µL of 7.5 M guanidine hydrochloride was added, followed by 180 µL of buffer (20 mM Tris, pH 8.0), mixed and then transferred to a 96-well FlashPlate (Cat.# SMP103; Perkin Elmer; www.perkinelmer.com). After mixing, the reaction mixtures in Flash plates were incubated for 1 h and the CPM were measured using Topcount plate reader (Perkin Elmer, www.perkinelmer.com). The CPM counts in the absence of compound for each dataset were defined as 100% activity. In the absence of the enzyme, the CPM counts in each dataset were defined as background (0%). The IC50 values were determined using GraphPad Prism 7 software. For the kinetic analysis of HSPA8 methylation by PRMT7, the assay mixture contained 20 mM Tris–HCl, pH 8.5, 0.01% Tween-20, and 5 mM dithiothreitol (DTT), 1 mM MgCl2, 1 mM ATP where indicated, 250 nM PRMT7, fixed concentration (20 µM) of SAM, various concentrations (up to 40 µM) of HSPA8; or fixed concentration (10 µM) of HSPA8 with different concentrations of SAM (up to 20 µM). […] To determine the mode of action, the experiments were performed in the presence of fixed biotinylated H2B peptide (residues 23–37) or HSPA8 substrate concentration and increasing SAM concentration or at fixed concentration of SAM and varying concentration of the substrate. Twenty µL of reaction mixtures were incubated at 23 °C for 60 min. To stop reactions, 100 µL of 10% trichloroacetic acid (TCA) was added, mixed and transferred to filter-plates (Millipore; cat.# MSFBN6B10; www.millipore.com). Plates were centrifuged at 930 × g (Allegra X-15R—Beckman Coulter, Inc.) for 2 min followed by two additional 10% TCA washes and one ethanol wash followed by centrifugation. Plates were dried and 30 µL MicroScint-O (
# PRMT4 = molecular target: T1, PRMT4 (Homo sapiens, UniProt Q86X55); test: biochemical; design: radiometric methyltransferase assay with tritiated SAM, IC50
# T1 construct: gene CARM1
# T1 sequence (Q86X55 1-608): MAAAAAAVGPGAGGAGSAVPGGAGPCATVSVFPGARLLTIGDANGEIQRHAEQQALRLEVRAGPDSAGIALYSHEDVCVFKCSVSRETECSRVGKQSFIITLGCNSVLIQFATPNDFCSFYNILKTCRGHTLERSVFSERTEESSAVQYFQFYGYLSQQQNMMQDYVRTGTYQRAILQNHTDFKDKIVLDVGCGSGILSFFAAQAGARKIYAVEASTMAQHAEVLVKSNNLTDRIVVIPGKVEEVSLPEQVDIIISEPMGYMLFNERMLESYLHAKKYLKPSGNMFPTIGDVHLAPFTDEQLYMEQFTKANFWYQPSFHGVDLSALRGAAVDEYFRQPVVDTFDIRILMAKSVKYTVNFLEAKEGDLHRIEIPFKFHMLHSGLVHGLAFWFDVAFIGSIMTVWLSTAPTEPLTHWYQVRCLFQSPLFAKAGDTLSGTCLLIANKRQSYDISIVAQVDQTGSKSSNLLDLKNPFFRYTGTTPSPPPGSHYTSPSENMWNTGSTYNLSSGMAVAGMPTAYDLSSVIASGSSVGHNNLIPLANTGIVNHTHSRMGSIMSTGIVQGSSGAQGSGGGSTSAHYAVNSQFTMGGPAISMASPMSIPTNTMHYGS
# Procedure: as §1
# Chain of PRMT1 (Q99873 whole entry): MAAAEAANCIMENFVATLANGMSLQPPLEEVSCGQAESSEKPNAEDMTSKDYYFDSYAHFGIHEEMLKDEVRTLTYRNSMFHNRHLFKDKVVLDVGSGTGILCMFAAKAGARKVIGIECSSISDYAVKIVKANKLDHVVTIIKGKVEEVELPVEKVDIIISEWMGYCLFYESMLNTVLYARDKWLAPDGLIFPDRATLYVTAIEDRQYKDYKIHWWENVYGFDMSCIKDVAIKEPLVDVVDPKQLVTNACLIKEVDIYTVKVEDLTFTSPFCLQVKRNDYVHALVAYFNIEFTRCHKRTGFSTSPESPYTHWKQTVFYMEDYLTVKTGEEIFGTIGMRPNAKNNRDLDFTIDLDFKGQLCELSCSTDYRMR
structure (smiles),measurement,setting,value
Nc1ncnc2c1ncn2[C@@H]1O[C@H](CSCCCNCc2cccc(-c3ccc(Cl)cc3)c2)[C@@H](O)[C@H]1O [SGC8172],IC50,PRMT1,> 5000 nM
same,IC50,PRMT4,3.6 nM
